US9226926B2, “Therapeutic agent for lower urinary tract disease” (N.M.A. Co., Ltd., priority 2013, dated 2016)

Legend:
Assay type in all cases: in vivo, SD rats
[1] = test system: rat model of chronic cystitis; assay: Conscious cystometrography in rat model of chronic cystitis (cyclophosphamide); settings: 300 μL into the bladder, cyclophosphamide 150 mg/kg i.p., after two days
Procedure: In addition, experiments were performed for studying effects of the present invention on cystitis using a rat model of chronic cystitis. To 12-week old male SD rats, cyclophosphamide (150 mg/kg) was intraperitoneally administered under isoflurane anesthetization. Immediately after that, rebamipide (1 mM or 10 mM, 300 μL) or vehicle was injected into the bladder, and the rats were held in the supine position for 1 hour. (1) After two days, conscious cystometrography was performed (the saline perfusion flow rate: 0.04 ml/min) was performed.

[2] = test system: rat model of chronic cystitis; assay: H&E staining of removed bladder to score the degree of inflammation
Procedure: To 12-week old male SD rats, cyclophosphamide (150 mg/kg) was intraperitoneally administered under isoflurane anesthetization. Immediately after that, rebamipide (1 mM or 10 mM, 300 μL) or vehicle was injected into the bladder, and the rats were held in the supine position for 1 hour. (2) After two days, the bladder was removed, and H&E stained to score the degree of inflammation

TNFα = TNFα in bladder tissue by RT-PCR; settings: rebamipide group vs CYP group
Procedure: (§1) To 12-week old male SD rats, cyclophosphamide (150 mg/kg) was intraperitoneally administered under isoflurane anesthetization. Immediately after that, rebamipide (1 mM or 10 mM, 300 μL) or vehicle was injected into the bladder, and the rats were held in the supine position for 1 hour. (3) TNFα, IL-6 and IL-1β which are inflammatory cytokines in bladder tissue were measured by RT-PCR, and an inflammation marker, MPO, was measured by ELISA.

IL-6 = IL-6 in bladder tissue by RT-PCR; settings: rebamipide group vs CYP group
Procedure: as §1

IL-1β = IL-1β in bladder tissue by RT-PCR; settings: rebamipide group vs CYP group
Procedure: as §1

MPO = MPO inflammation marker in bladder tissue by ELISA; settings: rebamipide group vs CYP group
Procedure: as §1

[3] = rebamipide group vs CYP group, after two days

Structure (SMILES): O=C(NC(Cc1cc(=O)[nH]c2ccccc12)C(=O)O)c1ccc(Cl)cc1 (stereo not drawn) [rebamipide, 2-(4-chlorbenzoylamino)-3-(2-quinolone-4-yl)propionic acid]
- urination interval ([1]; 1 mM): 14.4 ± 2.1 min
- urination interval ([1]; 10 mM): 21.1 ± 2.5 min
- invasive inflammatory cells [2, 3]: significantly reduced
- submucosal edema [2, 3]: significantly reduced
- bladder inflammation ([2]; rebamipide injected into the bladder, summary): suppressed
- level of TNFα in the bladder tissue (TNFα): increase was suppressed
- level of IL-6 in the bladder tissue (IL-6): increase was suppressed
- level of IL-1β in the bladder tissue (IL-1β): increase was suppressed
- level of MPO in the bladder tissue (MPO): increase was suppressed
